Consider one compound from patent US7575882B2, “Compositions and methods for identifying modulators of TRPV2” (Janssen Pharmaceutica N. V., priority 2005, dated 2009).

For one experiment, the target named is T1, rat TRPV2 (Rattus norvegicus, UniProt Q9WUD2, A713V/L151P/T158I).
T1 construct: A cDNA fragment encoding the full-length rat TRPV2 was subcloned into pCI-neo; expressed in transfected cells
T1 sequence (Q9WUD2 1-761 L151P/T158I/A713V): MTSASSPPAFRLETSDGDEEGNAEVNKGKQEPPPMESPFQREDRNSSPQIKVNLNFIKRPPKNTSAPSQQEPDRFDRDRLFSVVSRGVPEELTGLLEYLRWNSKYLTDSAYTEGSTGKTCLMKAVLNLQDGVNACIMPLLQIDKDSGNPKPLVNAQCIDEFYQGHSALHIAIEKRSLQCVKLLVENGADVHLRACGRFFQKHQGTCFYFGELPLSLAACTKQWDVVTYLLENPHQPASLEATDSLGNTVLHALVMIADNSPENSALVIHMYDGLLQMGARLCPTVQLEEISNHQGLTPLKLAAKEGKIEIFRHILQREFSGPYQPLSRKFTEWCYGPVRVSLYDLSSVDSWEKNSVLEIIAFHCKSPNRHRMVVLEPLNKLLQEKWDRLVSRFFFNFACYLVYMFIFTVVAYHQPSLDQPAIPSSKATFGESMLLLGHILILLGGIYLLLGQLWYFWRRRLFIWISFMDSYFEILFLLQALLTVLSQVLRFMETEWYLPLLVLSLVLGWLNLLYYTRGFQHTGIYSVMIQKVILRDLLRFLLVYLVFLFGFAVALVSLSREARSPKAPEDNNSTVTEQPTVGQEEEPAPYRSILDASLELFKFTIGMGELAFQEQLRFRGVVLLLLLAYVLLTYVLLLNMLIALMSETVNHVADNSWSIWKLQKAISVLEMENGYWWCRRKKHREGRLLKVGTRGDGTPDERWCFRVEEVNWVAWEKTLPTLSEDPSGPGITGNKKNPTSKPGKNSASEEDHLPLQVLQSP
In words: Whole-cell patch clamp, HEK293 cells stably expressing rat TRPV2. The following applies: 10 μM ruthenium red; 100 μM Δ^9-THC. The experiment is classed as cell-based. As for the experimental part:
To further confirm the Δ^9-THC effect on TRPV2, whole-cell patch clamp studies were performed. The extracellular solution contained (in mM): NaCl, 132; CaCl, 1.8; KCl, 5.4; MgCl2, 0.8; HEPES, 10; glucose, 10; pH=7.4. The intracellular solution used to fill recording pipettes contained (in mM): CsCl, 145; EGTA, 5; HEPES, 10; glucose, 5; pH=7.4. Recordings were performed using the conventional whole-cell patch clamp technique, 2-3 days after transient transfection of human TRPV2 into HEK293 cell or 1-2 days after plating HEK293 cells stably expressing rat TRPV2 onto glass coverslips. Currents were amplified by a patch clamp amplifier and filtered at 2 kHz (Axopatch 200B), sampled at 10 kHz using Digidata 1322A and acquired and analyzed with pClamp 9.0 (all instruments from Molecular Devices, CA). A 600 ms voltage ramp was given once every five seconds from −100 mV to +60 mV. The holding potential between voltage ramps was −100 mV. Extracellular solutions were applied to the cell at 0.5 ml/min via a gravity-fed perfusion system. All experiments were performed at 22° C.

The next experiment concerns the target T2, human TRPV2 (Homo sapiens, UniProt Q9Y5S1).
T2 construct: A cDNA fragment encoding the full-length human TRPV2 was subcloned into pCI-neo or pcDNA3; expressed in transfected cells; host or cells: HEK293, transient, pCI-neo or pcDNA3
T2 sequence (Q9Y5S1 1-764): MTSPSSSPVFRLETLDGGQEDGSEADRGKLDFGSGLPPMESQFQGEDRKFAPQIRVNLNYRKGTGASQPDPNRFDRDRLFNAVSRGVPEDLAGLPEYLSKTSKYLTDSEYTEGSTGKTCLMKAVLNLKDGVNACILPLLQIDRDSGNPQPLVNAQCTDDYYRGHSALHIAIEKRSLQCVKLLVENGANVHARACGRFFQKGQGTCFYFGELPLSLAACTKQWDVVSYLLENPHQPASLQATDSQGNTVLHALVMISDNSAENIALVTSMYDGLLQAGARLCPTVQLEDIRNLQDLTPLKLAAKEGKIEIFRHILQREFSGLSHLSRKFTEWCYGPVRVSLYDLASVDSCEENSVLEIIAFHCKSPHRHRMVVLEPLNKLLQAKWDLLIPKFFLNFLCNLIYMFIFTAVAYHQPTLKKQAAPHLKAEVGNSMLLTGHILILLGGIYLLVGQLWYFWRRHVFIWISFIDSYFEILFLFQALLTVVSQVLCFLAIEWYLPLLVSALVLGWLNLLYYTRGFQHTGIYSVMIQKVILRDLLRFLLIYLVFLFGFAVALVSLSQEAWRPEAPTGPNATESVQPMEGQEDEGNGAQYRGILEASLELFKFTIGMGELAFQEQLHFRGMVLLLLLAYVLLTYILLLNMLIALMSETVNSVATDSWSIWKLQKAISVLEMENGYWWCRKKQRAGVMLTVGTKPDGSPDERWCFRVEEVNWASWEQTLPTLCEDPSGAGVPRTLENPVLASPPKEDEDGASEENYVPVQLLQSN
In words: Whole-cell patch clamp, HEK293 cells transiently transfected with human TRPV2. The class given is cell-based. To be noted: 10 μM ruthenium red; 100 μM Δ^9-THC. As for the experimental part:
A cDNA fragment encoding the full-length human TRPV2 was subcloned into pCI-neo or pcDNA3 mammalian expression vectors. The expression constructs were then transfected into HEK293 cells with FuGene6 transfection reagent (Roche, Indianapolis, Ind.) according to vendor's protocol. TRPV2-expressing HEK293 cells were cultured in DMEM supplemented with 10% fetal bovine serum, 100 units/ml penicillin, and 100 μg/ml streptomycin for 48-72 hr and either evaluated for transient expression and/or activity, or dosed with 400 μg/ml G418 to select for stably-transfected TRPV2-expressing cell clones. Cells were maintained at 37° C. and in 5% CO2.
To further confirm the Δ^9-THC effect on TRPV2, whole-cell patch clamp studies were performed. The extracellular solution contained (in mM): NaCl, 132; CaCl, 1.8; KCl, 5.4; MgCl2, 0.8; HEPES, 10; glucose, 10; pH=7.4. The intracellular solution used to fill recording pipettes contained (in mM): CsCl, 145; EGTA, 5; HEPES, 10; glucose, 5; pH=7.4. […] Currents were amplified by a patch clamp amplifier and filtered at 2 kHz (Axopatch 200B), sampled at 10 kHz using Digidata 1322A and acquired and analyzed with pClamp 9.0 (all instruments from Molecular Devices, CA). […]

For `N.N.N.N.N.N.N.N.N.N.N.N.N.N.[Cl-].[Cl-].[Cl-].[Cl-].[Cl-].[Cl-].[O-2].[O-2].[Ru+3].[Ru+3].[Ru+4]` [ruthenium red], the “inhibition of Δ^9-THC-activated currents, rat TRPV2” value against rat TRPV2 is reported as “significantly inhibited”. In addition, the “inhibition of Δ^9-THC-activated currents, human TRPV2” value against human TRPV2 is given as “significantly inhibited”.
